Laboratory results reported in PMC12227560, “Total synthesis of a sorrentanone ester library and evaluation of its antimicrobial potential” (Scientific Reports, 2025).
In brackets after ≈: the same amount, converted by molar mass. Read-outs that look alike come from different tables or passages of the source.

Experiments:
S. aureus ATCC25923 = assay: Antimicrobial broth micro-dilution assay (MIC); type: cell-based; settings: Staphylococcus aureus, read-out: Minimum inhibitory concentration (MIC)
From the text: (§1) 3. Bioactivity and Toxicity Assays
(§2) Antimicrobial assay: According to the standard broth micro-dilution assays, following the Standards of European Committee on Antimicrobial Susceptibility Testing (v 7.3.1: Method for the determination of broth dilution minimum inhibitory concentrations of antifungal agents for yeasts) for Candida spp., and according to the standard broth micro-dilution assays, recommended by the National Committee for Clinical Laboratory Standards (M07-A8) for bacteria MIC values of compounds were determinate. Compounds were dissolved in DMSO at a concentration of 50 mg/mL, and the highest tested concentration was 250 µg/mL. The inoculums were 1x10^5 colony forming units (CFU/mL), for Candida species, and bacteria species, 5x10^5 colony forming units (CFU/mL). The MIC value was recorded as the lowest concentration that inhibited the growth after 24 h at 37 °C. Additionally, 5 µL from each well of 96 well plates was transferred to Luria Agar (LA) plates for bacteria and Sabouraud agar (SAB) plates for Candida spp. and incubated for an additional 24 h at 37 °C, to determine MBC (Minimum bactericidal/fungicidal concentration) values. In Table 1. Are labeled compounds showing a difference in MBC and previously determined MIC values. […]

B. subtilis ATCC6633 = assay: Antimicrobial broth micro-dilution assay (MIC); type: cell-based; settings: Bacillus subtilis, read-out: Minimum inhibitory concentration (MIC)
From the text: as §1, §2

C. albicans ATCC10231 = assay: Antimicrobial broth micro-dilution assay (MIC); type: cell-based; settings: Candida albicans, read-out: Minimum inhibitory concentration (MIC)
From the text: as §1, §2

S. aureus MRSA = assay: Antimicrobial broth micro-dilution assay (MIC); type: cell-based; settings: Staphylococcus aureus, read-out: Minimum inhibitory concentration (MIC)
From the text: as §1, §2

E. coli NCTC9001 = assay: Antimicrobial broth micro-dilution assay (MIC); type: cell-based; settings: Escherichia coli, read-out: Minimum inhibitory concentration (MIC)
From the text: as §1, §2

P. aeruginosa ATCC27853 = assay: Antimicrobial broth micro-dilution assay (MIC); type: cell-based; settings: Pseudomonas aeruginosa, read-out: Minimum inhibitory concentration (MIC)
From the text: as §1, §2

Caenorhabditis elegans = assay: In vivo toxicity C. elegans survival assay; settings: C. elegans model
Method: 3. Bioactivity and Toxicity Assays […]
Compounds were dissolved in DMSO at a concentration of 50 mg/mL, and the highest tested concentration was 250 µg/mL. […]
In vivo toxicity C. elegans assay: The C. elegans survival assay was carried out as described previously with some modifications. 8 In brief, synchronized worms (L4 stage) were suspended in a medium containing 95% M9 buffer (3.0 g of KH2PO4, 6.0 g of Na2HPO4, 5.0 g of NaCl, and 1 mL of 1 M MgSO4 × 7H2O in 1 L of water), 5% LB (Luria-Bertani) broth (Oxoid, Basingstoke, UK), and 10 μg of cholesterol (Sigma -Aldrich, Munich, Germany) per mL. The experiment was carried out in 96 -well flat -bottomed microtiter plates (Sarstedt, Nümbrecht, Germany) in the final volume of 100 μL per wel l. 25 μL of this suspension of nematodes (25 –35 nematodes) were transferred to the wells of a 96 -well microtiter plate, where 50 μL of the medium was previously added. Next, 25 μL of a solvent control (DMSO) or 25 μL of a concentrated solution was added to the test wells. The final concentrations of the compounds were 50, 25, 10, and 5 µg/mL. Subsequently, the plates were incubated at 25 °C for 2 days. The fraction of dead worms was determined after 48 h by counting the number of dead worms and the total number of worms in each well, using a stereomicroscope (SMZ143-N2GG, Motic, Germany).
As a negative control experiment, nematodes were exposed to the medium containing 1% […]
Ergosterol biosynthesis assay: Ergosterol levels were measured according to the published procedure with some minor modifications. 10 Briefly, a sing le C. albicans colony from an overnight Sabouraud dextrose agar plate was used to inoculate 50 ml of Sabouraud dextrose broth containing 0.5 MIC concentrated compounds. Incubation was performed for 18 h at 37 °C on the rotary shaker at 180 rpm. Cells were harvested by centrifugation at 3000 rpm for 5 min and washed once with sterile distilled water. The net wet weight of the cell pellet was determined. Three milliliters of 25% alcoholic potassium hydroxide solution (25 g of KOH and 35 ml of sterile distill ed water, brought to 100 ml with 100% ethanol), was added to each pellet and vortex mixed for 1 min and incubated in an 85 °C water bath for 1 h. Tubes were cooled to room temperature and extraction of sterols was done with the addition of a mixture of 1 ml of sterile distilled water and 3 ml of n-heptane followed by vigorous vortex mixing for 3 min. The heptane layer was used for spectrophotometrically measuring ergosterol concentrations by scanning absorbance between 240 nm and 300 nm using Ultrospec 3300pro 573 (Amer sham Biosciences, Amersham, UK).

[1] = test system: two S. aureus strains and B. subtilis ATCC6633; assay: Antimicrobial assay, Gram-positive bacteria; type: cell-based; settings: from MIC values
From the text: as §1, §2

[2] = test system: human lung fibroblast cell line (MRC-5); assay: Cytotoxicity evaluation by MTT assay; type: cell-based
From the text: as §1
Antimicrobial assay: According to the standard broth micro-dilution assays, following the Standards of European Committee on Antimicrobial Susceptibility Testing (v 7.3.1: Method for the determination of broth dilution minimum inhibitory concentrations of antifungal agents for yeasts) for Candida spp., and according to the standard broth micro-dilution assays, recommended by the National Committee for Clinical Laboratory Standards (M07-A8) for bacteria MIC values of compounds were determinate. Compounds were dissolved in DMSO at a concentration of 50 mg/mL, and the highest tested concentration was 250 µg/mL. The inoculums were 1x10^5 colony forming units (CFU/mL), for Candida species, and bacteria species, 5x10^5 colony forming units (CFU/mL). The MIC value was recorded as the lowest concentration that inhibited the growth after 24 h at 37 °C. Additionally, 5 µL from each well of 96 well plates was transferred to Luria Agar (LA) plates for bacteria and Sabouraud agar (SAB) plates for Candida spp. and incubated for an additional 24 h at 37 °C, to determine MBC (Minimum bactericidal/fungicidal concentration) values. In Table 1. Are labeled compounds showing a difference in MBC and previously determined MIC values.
Cytotoxicity evaluation: Antiproliferative activity was tested by MTT assay (3-(4,5-dimethylthiazol-2-yl)-2,5-diphenyltetrazoliumbromide) on a human lung fibroblast cell line (MRC-5; ATCC collection). Pre-grown (24 h) cell monolayers (1x10^4 cells per well) in RPMI 1640 medium supplemented with 100 μg/mL streptomycin, 100 U/mL penicillin, and 10% (v/v) FBS (all from Sigma, Munich, Germany) containing the tested compounds at concentrations ranging from 5 to 20 μg/mL were incubated in a humidified atmosphere of 95% air and 5% CO2 at 37 °C for 48 h. The cell viability (extent of MTT reduction) was measured spectrophotometrically at 540 nm using the Epoch 2000 multiplate reader, and the cell survival was expressed as a percentage of the control (untreated cells). Cytotoxicity was expressed as the concentration of the compound inhibiting cell growth by 50% (IC 50). […]

[3] = S. aureus ATCC25923, 24 h at 37 °C, highest tested concentration 250 µg/mL
[4] = B. subtilis ATCC6633, 24 h at 37 °C, highest tested concentration 250 µg/mL
[5] = C. albicans ATCC10231, 24 h at 37 °C, highest tested concentration 250 µg/mL
[6] = S. aureus MRSA, 24 h at 37 °C, highest tested concentration 250 µg/mL
[7] = E. coli NCTC9001, 24 h at 37 °C, highest tested concentration 250 µg/mL
[8] = P. aeruginosa ATCC27853, 24 h at 37 °C, highest tested concentration 250 µg/mL

Row | SMILES | MIC (S. aureus ATCC25923; [3]) [µg/mL] | MIC (B. subtilis ATCC6633; [4]) [µg/mL] | MIC (C. albicans ATCC10231; [5]) [µg/mL] | MIC (S. aureus MRSA; [6]) [µg/mL] | MIC (E. coli NCTC9001; [7]) [µg/mL] | MIC (P. aeruginosa ATCC27853; [8]) [µg/mL] | in vivo toxicity (in words) (Caenorhabditis elegans) | improvement of antibacterial activity compared to sorrentanone (7) [1] | cell survival ([2]; MRC-5 cells, 10 µg/mL, 48 h) | MIC (S. aureus ATCC25923; ATCC25923, 24 h) [µg/mL] | MIC (B. subtilis ATCC6633; ATCC6633, 24 h) [µg/mL] | MIC (C. albicans ATCC10231; ATCC10231, 24 h) [µg/mL] | MIC (S. aureus MRSA; MRSA, 24 h) [µg/mL] | MIC (E. coli NCTC9001; NCTC9001, 24 h) [µg/mL] | MIC (P. aeruginosa ATCC27853; ATCC27853, 24 h) [µg/mL] | selectivity index (SI) ([2]; cytotoxicity versus antibiotic activity, calculation not described)
1 | COC(=O)C1=C(C)C(=O)C(O)=C(C)C1=O [compound 28] | 62.5 (≈ 297 µM) | 15.6 (≈ 74.2 µM) | > 250 | 31.2 (≈ 148 µM) | > 250 | > 250 |  |  |  |  |  |  |  |  |  | 
2 | CCOC(=O)C1=C(C)C(=O)C(O)=C(C)C1=O [compound 29] | 62.5 (≈ 279 µM) | 15.6 (≈ 69.6 µM) | > 250 | 62.5 (≈ 279 µM) | > 250 | > 250 |  |  |  |  |  |  |  |  |  | 
3 | CCCOC(=O)C1=C(C)C(=O)C(O)=C(C)C1=O [compound 30] | 62.5 (≈ 262 µM) | 15.6 (≈ 65.5 µM) | > 250 | 62.5 (≈ 262 µM) | > 250 | > 250 |  |  |  |  |  |  |  |  |  | 
4 | CCCCOC(=O)C1=C(C)C(=O)C(O)=C(C)C1=O [compound 31] | 31.2 (≈ 124 µM) | 15.6 (≈ 61.8 µM) | > 250 | 31.2 (≈ 124 µM) | > 250 | > 250 |  |  |  |  |  |  |  |  |  | 
5 | CC1=C(O)C(=O)C(C)=C(C(=O)OCC(C)C)C1=O [compound 32] | 31.2 (≈ 124 µM) | 31.2 (≈ 124 µM) | > 250 | 31.2 (≈ 124 µM) | > 250 | > 250 |  |  |  |  |  |  |  |  |  | 
6 | CCCCCOC(=O)C1=C(C)C(=O)C(O)=C(C)C1=O [compound 33] | 15.6 (≈ 58.6 µM) | 15.6 (≈ 58.6 µM) | > 250 | 15.6 (≈ 58.6 µM) | > 250 | > 250 | comparatively lower in vivo toxicity | two- to four-fold improved activity |  |  |  |  |  |  |  | 
7 | CC1=C(O)C(=O)C(C)=C(C(=O)OCCC(C)C)C1=O [compound 34] | 15.6 (≈ 58.6 µM) | 15.6 (≈ 58.6 µM) | > 250 | 15.6 (≈ 58.6 µM) | > 250 | > 250 |  | two- to four-fold improved activity |  |  |  |  |  |  |  | 
8 | CCCCCCOC(=O)C1=C(C)C(=O)C(O)=C(C)C1=O [compound 35] | 31.2 (≈ 111 µM) | 7.81 (≈ 27.9 µM) | 62.5 (≈ 223 µM) | 31.2 (≈ 111 µM) | > 250 | > 250 |  |  |  |  |  |  |  |  |  | 
9 | C=CCCOC(=O)C1=C(C)C(=O)C(O)=C(C)C1=O [compound 37] | 62.5 (≈ 250 µM) | 31.2 (≈ 125 µM) | > 250 | 31.2 (≈ 125 µM) | > 250 | > 250 |  |  |  |  |  |  |  |  |  | 
10 | C#CCCOC(=O)C1=C(C)C(=O)C(O)=C(C)C1=O [compound 38] | 62.5 (≈ 252 µM) | 31.2 (≈ 126 µM) | > 250 | 31.2 (≈ 126 µM) | > 250 | > 250 |  |  |  |  |  |  |  |  |  | 
11 | C#CCCCOC(=O)C1=C(C)C(=O)C(O)=C(C)C1=O [compound 40] | 31.2 (≈ 119 µM) | 31.2 (≈ 119 µM) | 62.5 (≈ 238 µM) | 62.5 (≈ 238 µM) | > 250 | > 250 |  |  | over 60% |  |  |  |  |  |  | 
12 | CN[C@H](CC(C)C)C(=O)N[C@H]1C(=O)N[C@@H](CC(N)=O)C(=O)N[C@H]2C(=O)N[C@H]3C(=O)N[C@H](C(=O)N[C@H](C(=O)O)c4cc(O)cc(O)c4-c4cc3ccc4O)[C@H](O)c3ccc(c(Cl)c3)Oc3cc2cc(c3O[C@@H]2O[C@H](CO)[C@@H](O)[C@H](O)[C@H]2O[C@H]2C[C@](C)(N)[C@H](O)[C@H](C)O2)Oc2ccc(cc2Cl)[C@H]1O [vancomycin, reference compound] |  |  |  |  |  |  |  |  |  | 1 (≈ 0.69 µM) | 0.4 (≈ 0.276 µM) | 50 (≈ 34.5 µM) | 0.5 (≈ 0.345 µM) | 125 (≈ 86.3 µM) | 125 (≈ 86.3 µM) | 200
